Reference: patent US6358885B1, “Substituted phenylheterocyclic herbicides” (Mississippi State University, priority 1992, dated 2002)

Assays:
[1] = system: sorghum; assay: Test B preemergence/postemergence greenhouse plant response rating 0 to 10; assay type: in vivo, Sorghum bicolor; conditions: 0 to 10 scale
How it was run: (§1)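 Postemergence treatment of plants two to eighteen cm tall ran alongside preemergence treatment of planted seed, each using compound in a non-phytotoxic solvent.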

[2] = system: purple nutsedge; assay: as above; assay type: in vivo, Cyperus rotundus; conditions: 0 to 10 scale
How it was run: as §1

[3] = system: crabgrass; assay: as above; assay type: in vivo, Digitaria spp.; conditions: for Plant response rating, Crabgrass: 0 to 10 scale
How it was run: as §1

[4] = system: wheat; assay: as above; assay type: in vivo, Triticum aestivum; conditions: 0 to 10 scale
How it was run: as §1

[5] = system: cotton; assay: Test C preemergence/postemergence greenhouse plant response rating 0 to 100; assay type: in vivo, Gossypium hirsutum; conditions: POSTEMERGENCE; for Plant response rating, Cotton: 0 to 100 scale
How it was run: (§2)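 Compounds in non-phytotoxic solvent went onto sandy loam before emergence (seeded one day earlier) or onto plants at the one-to-four leaf stage. Duck salad was treated via flood water (~2.5 cm, maintained) over silt loam.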

[6] = system: lambsquarters; assay: as above; assay type: in vivo, Chenopodium album; conditions: POSTEMERGENCE; for Plant response rating Lambsquarters: 0 to 100 scale
How it was run: as §2

[7] = system: corn; assay: Test B preemergence/postemergence greenhouse plant response rating 0 to 10; assay type: in vivo, Zea mays; conditions: for Plant response rating, Corn: 0 to 10 scale
How it was run: as §1

[8] = system: velvetleaf; assay: Test C preemergence/postemergence greenhouse plant response rating 0 to 100; assay type: in vivo, Abutilon theophrasti; conditions: POSTEMERGENCE; for Plant response rating, Velvetleaf: 0 to 100 scale
How it was run: as §2

[9] = system: sugar beet; assay: Test B preemergence/postemergence greenhouse plant response rating 0 to 10; assay type: in vivo, Beta vulgaris; conditions: 0 to 10 scale
How it was run: as §1

[10] = system: barnyardgrass; assay: Test C flood test plant response rating 0 to 100; assay type: in vivo, Echinochloa crus-galli; conditions: for Plant response rating (0 to 100), Barnyardgrass: under POSTEMERGENCE head (flood test species); for Plant response rating, Barnyardgrass: flood test species listed under POSTEMERGENCE, 0 to 100 scale
Source text: (§3) The compounds evaluated in this test were formulated in a non-phytoxic solvent and applied to the soil surface before plant seedlings emerged (preemergence application), to water that covered the soil surface (flood application), and to plants that were in the one-to-four leaf stage (postemergence application). A sandy loam soil was used for the preemergence and postemergence tests, while a silt loam soil was used in the flood test. Water depth was approximately 2.5 cm for the flood test and was maintained at this level for the duration of the test. Plant species in the preemergence and postemergence tests consisted of barley (Hordeum vulgare), bedstraw (Galium aparine), blackgrass (Alopecurus myosuroides), chickweed (Stellaria media), corn (Zea mays), cotton (Gossypium hirsutum), crabgrass (Digitaria sanguinalis), downy brome (Bromus tectorum), giant foxtail (Setaria faberii), lambsquarters (Chenopodium album), morningglory (Ipomoea hederacea), pigweed ([…]), rape (Brassica napus), ryegrass (Lolium multiflorum), sorghum (Sorghum bicolor), soybean (Glycine max), speedwell (Veronica persica), sugar beet (Beta vulgaris), velvetleaf (Abutilon theophrasti), wheat (Triticum aestivum), wild buckwheat (Polygonum convolvulus), and wild oat (Avena fatua). All plant species were planted one day before application of the compound for the preemergence portion-of this test. Plantings of these species were adjusted to produce plants of appropriate size for the post-emergence portion of the test. […] All plant species were grown using normal greenhouse practices. Visual evaluations of injury expressed on treated plants, when compared to untreated controls, were recorded approximately fourteen to twenty one days after application of the test compound. […] A dash (-) response means no test result.

[11] = system: pigweed; assay: Test C preemergence/postemergence greenhouse plant response rating 0 to 100; assay type: in vivo, Amaranthusretroflexus; conditions: POSTEMERGENCE; for Plant response rating Pigweed: 0 to 100 scale
How it was run: as §2

[12] = system: blackgrass; assay: Test B preemergence/postemergence greenhouse plant response rating 0 to 10; assay type: in vivo, Alopecurus myosuroides; conditions: for Plant response rating, Blackgrass: 0 to 10 scale
How it was run: as §1

[13] = system: wild buckwheat; assay: Test C preemergence/postemergence greenhouse plant response rating 0 to 100; assay type: in vivo, Polygonum convolvulus; conditions: POSTEMERGENCE; for Plant response rating, Wild buckwheat: 0 to 100 scale
How it was run: as §2

[14] = system: cotton; assay: Test B preemergence/postemergence greenhouse plant response rating 0 to 10; assay type: in vivo, Gossypium hirsutum; conditions: for Plant response rating, Cotton: 0 to 10 scale
How it was run: as §1

[15] = system: wheat; assay: Test C preemergence/postemergence greenhouse plant response rating 0 to 100; assay type: in vivo, Triticum aestivum; conditions: POSTEMERGENCE; for Plant response rating, Wheat: 0 to 100 scale
How it was run: as §2

[16] = system: duck salad; assay: Test C flood test plant response rating 0 to 100; assay type: in vivo, Heteranthera limosa; conditions: for Plant response rating Duck salad: flood test species listed under POSTEMERGENCE, 0 to 100 scale
Source text: as §3

[17] = system: wild oat; assay: Test B preemergence/postemergence greenhouse plant response rating 0 to 10; assay type: in vivo, Avena fatua; conditions: POSTEMERGENCE, 0 to 10 scale
How it was run: as §1

[18] = system: rice; assay: as above; assay type: in vivo, Oryza sativa; conditions: 0 to 10 scale
How it was run: as §1

SMILES: COc1cc(-c2nn3c(c2Cl)CCCC3)c(F)cc1Cl [Compound 29]
- Plant response rating, Sorghum ([1]; POSTEMERGENCE, Rate 50 g/ha): 5
- Plant response rating, Sorghum ([1]; PREEMERGENCE, Rate 50 g/ha): 0
- Plant response rating, Sorghum ([1]; Rate 200 g/ha, POSTEMERGENCE): 6
- Plant response rating, Sorghum ([1]; Rate 200 g/ha, PREEMERGENCE): 1
- Plant response rating, Nutsedge ([2]; POSTEMERGENCE, Rate 50 g/ha): 4
- Plant response rating, Nutsedge ([2]; PREEMERGENCE, Rate 50 g/ha): 0
- Plant response rating, Nutsedge ([2]; Rate 200 g/ha, POSTEMERGENCE): 4
- Plant response rating, Nutsedge ([2]; Rate 200 g/ha, PREEMERGENCE): 0
- Plant response rating (0 to 10 scale), Crabgrass ([3]; POSTEMERGENCE, Rate 50 g/ha): 4
- Plant response rating, Crabgrass ([3]; POSTEMERGENCE, Rate 200 g/ha): 5
- Plant response rating, Crabgrass ([3]; PREEMERGENCE, Rate 50 g/ha): 8
- Plant response rating, Crabgrass ([3]; Rate 200 g/ha, PREEMERGENCE): 9
- Plant response rating, Wheat ([4]; POSTEMERGENCE, Rate 50 g/ha): 4
- Plant response rating, Wheat ([4]; PREEMERGENCE, Rate 50 g/ha): 0
- Plant response rating, Wheat ([4]; Rate 200 g/ha, POSTEMERGENCE): 6
- Plant response rating, Wheat ([4]; Rate 200 g/ha, PREEMERGENCE): 4
- Plant response rating, Cotton ([5]; 62 g/ha): 100
- Plant response rating, Cotton ([5]; 250 g/ha): 100
- Plant response rating (0 to 100), Cotton ([5]; Rate 4 g/ha): 100
- Plant response rating (0 to 100), Cotton ([5]; Rate 16 g/ha): 100
- Plant response rating Lambsquarters ([6]; 62 g/ha): 100
- Plant response rating Lambsquarters ([6]; 250 g/ha): 100
- Plant response rating (0 to 100), Lambsquarters ([6]; Rate 4 g/ha): 30
- Plant response rating (0 to 100), Lambsquarters ([6]; Rate 16 g/ha): 60
- Plant response rating (0 to 10 scale), Corn ([7]; POSTEMERGENCE, Rate 50 g/ha): 6
- Plant response rating, Corn ([7]; POSTEMERGENCE, Rate 200 g/ha): 7
- Plant response rating, Corn ([7]; PREEMERGENCE, Rate 50 g/ha): 0
- Plant response rating, Corn ([7]; Rate 200 g/ha, PREEMERGENCE): 6
- Plant response rating, Velvetleaf ([8]; 62 g/ha): 100
- Plant response rating, Velvetleaf ([8]; 250 g/ha): 100
- Plant response rating (0 to 100), Velvetleaf ([8]; Rate 4 g/ha): 50
- Plant response rating (0 to 100), Velvetleaf ([8]; Rate 16 g/ha): 100
- Plant response rating, Sugar beet ([9]; POSTEMERGENCE, Rate 50 g/ha): 10
- Plant response rating, Sugar beet ([9]; PREEMERGENCE, Rate 50 g/ha): 7
- Plant response rating, Sugar beet ([9]; Rate 200 g/ha, POSTEMERGENCE): 10
- Plant response rating, Sugar beet ([9]; Rate 200 g/ha, PREEMERGENCE): 10
- Plant response rating (0 to 100), Barnyardgrass ([10]; Rate 4 g/ha): 100
- Plant response rating (0 to 100), Barnyardgrass ([10]; Rate 16 g/ha): 100
- Plant response rating, Barnyardgrass ([10]; 62 g/ha): 100
- Plant response rating, Barnyardgrass ([10]; 250 g/ha): 100
- Plant response rating Pigweed ([11]; 62 g/ha): 100
- Plant response rating Pigweed ([11]; 250 g/ha): 100
- Plant response rating (0 to 100), Pigweed ([11]; Rate 4 g/ha): 50
- Plant response rating (0 to 100), Pigweed ([11]; Rate 16 g/ha): 100
- Plant response rating (0 to 10 scale), Blackgrass ([12]; POSTEMERGENCE, Rate 50 g/ha): 3
- Plant response rating, Blackgrass ([12]; POSTEMERGENCE, Rate 200 g/ha): 6
- Plant response rating, Blackgrass ([12]; PREEMERGENCE, Rate 50 g/ha): 5
- Plant response rating, Blackgrass ([12]; Rate 200 g/ha, PREEMERGENCE): 7
- Plant response rating, Wild buckwheat ([13]; 62 g/ha): 100
- Plant response rating, Wild buckwheat ([13]; 250 g/ha): 100
- Plant response rating (0 to 100), Wild buckwheat ([13]; Rate 4 g/ha): 80
- Plant response rating (0 to 100), Wild buckwheat ([13]; Rate 16 g/ha): 90
- Plant response rating (0 to 10 scale), Cotton ([14]; POSTEMERGENCE, Rate 50 g/ha): 10
- Plant response rating, Cotton ([14]; POSTEMERGENCE, Rate 200 g/ha): 10
- Plant response rating, Cotton ([14]; PREEMERGENCE, Rate 50 g/ha): 1
- Plant response rating, Cotton ([14]; Rate 200 g/ha, PREEMERGENCE): 7
- Plant response rating, Wheat ([15]; 62 g/ha): 80
- Plant response rating, Wheat ([15]; 250 g/ha): 95
- Plant response rating (0 to 100), Wheat ([15]; Rate 4 g/ha): 20
- Plant response rating (0 to 100), Wheat ([15]; Rate 16 g/ha): 30
- Plant response rating (0 to 100), Duck salad ([16]; POSTEMERGENCE section, flood test, Rate 4 g/ha): 20
- Plant response rating (0 to 100), Duck salad ([16]; Rate 16 g/ha, under POSTEMERGENCE head (flood test species)): 85
- Plant response rating Duck salad ([16]; 62 g/ha): 95
- Plant response rating Duck salad ([16]; 250 g/ha): 100
- Plant response rating, Wild oat ([17]; Rate 50 g/ha): 5
- Plant response rating, Wild oat ([17]; Rate 200 g/ha): 7
- Plant response rating, Rice ([18]; POSTEMERGENCE, Rate 50 g/ha): 4
- Plant response rating, Rice ([18]; PREEMERGENCE, Rate 50 g/ha): 0
- Plant response rating, Rice ([18]; Rate 200 g/ha, POSTEMERGENCE): 7
- Plant response rating, Rice ([18]; Rate 200 g/ha, PREEMERGENCE): 2
